Source: patent US20150232420A1, “TRANSGLUTAMINASE TG2 INHIBITORS, PHARMACEUTICAL COMPOSITIONS, AND METHODS OF USE THEREOF” (priority 2012, published 2015)

Each compound was assayed against T1, human TG2 (Homo sapiens, UniProt P21980) (assay: fluorescent screening assay for human TG2). Conditions: Table 7; 20 nM TG2, 37° C.; read-out: IC50.
T1 sequence (P21980 1-687): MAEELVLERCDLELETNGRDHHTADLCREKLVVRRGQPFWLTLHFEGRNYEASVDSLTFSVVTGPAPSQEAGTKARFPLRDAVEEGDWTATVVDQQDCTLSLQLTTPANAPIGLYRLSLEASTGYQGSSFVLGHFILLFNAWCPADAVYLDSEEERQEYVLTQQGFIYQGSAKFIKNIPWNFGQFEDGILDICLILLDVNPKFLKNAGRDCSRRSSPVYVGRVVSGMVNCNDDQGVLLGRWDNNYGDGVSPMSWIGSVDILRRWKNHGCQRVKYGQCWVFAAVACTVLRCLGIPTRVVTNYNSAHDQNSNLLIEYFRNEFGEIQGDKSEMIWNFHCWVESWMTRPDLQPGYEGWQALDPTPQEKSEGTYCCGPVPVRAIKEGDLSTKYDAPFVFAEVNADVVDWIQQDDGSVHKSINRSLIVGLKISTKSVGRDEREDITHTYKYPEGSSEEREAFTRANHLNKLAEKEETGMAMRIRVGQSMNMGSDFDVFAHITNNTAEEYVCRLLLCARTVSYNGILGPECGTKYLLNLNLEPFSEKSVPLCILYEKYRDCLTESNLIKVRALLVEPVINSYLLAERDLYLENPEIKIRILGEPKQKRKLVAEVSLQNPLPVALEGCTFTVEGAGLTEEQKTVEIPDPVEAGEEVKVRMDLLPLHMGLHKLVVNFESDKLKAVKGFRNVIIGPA
Assay type: biochemical
Protocol: The fluorescent screening assay for human TG2 was performed as described herein: Assay conditions were 20 nM TG2, 8 μM N,N-dimethylated Casein (NMC) and 16 μM K×D (used for all transglutaminase assays) in 25 mM Hepes, pH 7.4, 250 mM NaCl, 2 mM MgCl2, 0.5 mM CaCl2, 0.2 mM DTT, 0.05% Pluronic F-127 at 37° C. A time point was taken with a microplate reader (Safire or Ultra, Tecan; ex: 350 nm, em: 535 nm) every 3 minutes for up to 2 hours and the initial linear reaction progress was used to determine the reaction velocity as a measure for enzyme activity. Assay conditions were identical for human TG6 and similar for human TG1 and mouse TG2 apart from enzyme concentration (mTG2 at 5 nM; TG1 at 10 nM) and CaCl2 concentration (0.2 mM for mTG2; 0.05 mM for TG1). Factor XIIIa was activated using 0.1 μg/μl thrombin (Sigma) in 35 mM Tris pH 8.0 for 20 min at 30° C. and the transamidation reaction was performed with 20 nM Factor XIIIa in 50 mM Tris pH 8.0, 1.25 mM CaCl2, 0.05% Pluronic, 0.2 mM DTT. TG3 was activated with 0.02 μg/μl thrombin under the same conditions as Factor XIIIa and assay conditions were 10 nM TG3 in 50 mM Hepes, pH 8, 20 mM CaCl2, 0.2 mM DTT, 0.05% Pluronic F-127.
Compound C=CC(=O)NCCCC[C@H](NC(=O)OCc1ccccc1)C(=O)N1CCN(c2cc(Cl)ccc2OC)CC1 [benzyl N-[(2S)-1-[4-(5-chloro-2-methoxyphenyl)piperazin-1-yl]-1-oxo-6-(prop-2-enamido)hexan-2-yl]carbamate] has an IC50 of under 100 nM.
Compound C=CC(=O)NCCCC[C@H](NC(=O)OCc1ccccc1)C(=O)N(C)C [benzyl N-[(1S)-1-(dimethylcarbamoyl)-5-(prop-2-enamido)pentyl]carbamate] has an IC50 of 1000 to 100000 nM.
C=CC(=O)NCCCC[C@H](NC(=O)OC(C)(C)C)C(=O)N1CCN(c2cccc(C)n2)CC1 [tert-butyl N-[(2S)-1-[4-(6-methylpyridin-2-yl)piperazin-1-yl]-1-oxo-6-(prop-2-enamido)hexan-2-yl]carbamate] showed an IC50 of 100 to 1000 nM.
Compound C=CC(=O)NCCCC[C@H](NC(=O)OCc1ccccc1)C(=O)N1Cc2ccccc2C1 [benzyl N-[(2S)-1-(2,3-dihydro-1H-isoindol-2-yl)-1-oxo-6-(prop-2-enamido)hexan-2-yl]carbamate] has an IC50 of 100 to 1000 nM.
Work on C=CC(=O)NCCCC[C@H](NC(=O)OCc1ccc2ccccc2c1)C(=O)O [(2S)-2-{[(naphthalen-2-ylmethoxy)carbonyl]amino}-6-(prop-2-enamido)hexanoic acid] yielded an IC50 of 1000 to 100000 nM.
C=CC(=O)NCCCC[C@H](NC(=O)OCc1ccccc1Cl)C(=O)O [(2S)-2-({[(2-chlorophenyl)methoxy]carbonyl}amino)-6-(prop-2-enamido)hexanoic acid] showed an IC50 of 1000 to 100000 nM.
For C=CC(=O)NCCCC[C@H](NC(=O)OCc1cccc(C(F)(F)F)c1)C(=O)O [(2S)-6-(prop-2-enamido)-2-[({[3-(trifluoromethyl)phenyl]methoxy}carbonyl)amino]hexanoic acid], the IC50 was 1000 to 100000 nM.
C=CC(=O)NCCCC[C@H](NC(=O)OCc1ccc([N+](=O)[O-])cc1)C(=O)O [(2S)-2-({[(4-nitrophenyl)methoxy]carbonyl}amino)-6-(prop-2-enamido)hexanoic acid] showed an IC50 of 1000 to 100000 nM.
C=CC(=O)NCCCC[C@H](NC(=O)OCc1ccccc1)C(=O)N1CCN(c2ccc(C(F)(F)F)cn2)CC1 [benzyl N-[(2S)-1-oxo-6-(prop-2-enamido)-1-{4-[5-(trifluoromethyl)pyridin-2-yl]piperazin-1-yl}hexan-2-yl]carbamate] showed an IC50 of 100 to 1000 nM.
Compound C=CC(=O)NCCCC[C@H](NC(=O)OCc1ccccc1)C(=O)N1CCN(c2ccc3ccccc3c2)CC1 [benzyl N-[(2S)-1-[4-(naphthalen-2-yl)piperazin-1-yl]-1-oxo-6-(prop-2-enamido)hexan-2-yl]carbamate] has an IC50 of 100 to 1000 nM.
Compound C=CC(=O)NCCCC[C@H](NC(=O)OCc1ccccc1)C(=O)N1CCC1 [benzyl N-[(2S)-1-(azetidin-1-yl)-1-oxo-6-(prop-2-enamido)hexan-2-yl]carbamate] has an IC50 of 1000 to 100000 nM.
Work on C=CC(=O)NCCCC[C@H](NC(=O)OCc1ccccc1)C(=O)N1CCN(C(=O)C23CC4CC(CC(C4)C2)C3)CC1 [benzyl N-[(2S)-1-[4-(adamantane-1-carbonyl)piperazin-1-yl]-1-oxo-6-(prop-2-enamido)hexan-2-yl]carbamate] yielded an IC50 of under 100 nM.
In the case of C=CC(=O)NCCCC[C@@H](NC(=O)OCc1ccccc1)C(=O)O [(2R)-2-{[(benzyloxy)carbonyl]amino}-6-(prop-2-enamido)hexanoic acid], the IC50 is reported as 1000 to 100000 nM.
C=CC(=O)NCCCC[C@H](NC(=O)OCc1ccc(CCCC)cc1)C(=O)O [(2S)-2-({[(4-butylphenyl)methoxy]carbonyl}amino)-6-(prop-2-enamido)hexanoic acid] showed an IC50 of 1000 to 100000 nM.
C=CC(=O)NCCCC[C@H](NC(=O)OCc1ccccc1)C(=O)N1CCN(C)CC1 [benzyl N-[(2S)-1-(4-methylpiperazin-1-yl)-1-oxo-6-(prop-2-enamido)hexan-2-yl]carbamate] showed an IC50 of 100 to 1000 nM.
C=CC(=O)NCCCC[C@H](NC(=O)OCc1ccccc1)C(=O)N1CCN(c2cccc(C)n2)CC1 [benzyl N-[(2S)-1-[4-(6-methylpyridin-2-yl)piperazin-1-yl]-1-oxo-6-(prop-2-enamido)hexan-2-yl]carbamate] gave an IC50 of under 100 nM.
C=CC(=O)NCCCC[C@H](NC(=O)OCc1ccccc1)C(=O)N1CCC(F)(F)CC1 [benzyl N-[(2S)-1-(4,4-difluoropiperidin-1-yl)-1-oxo-6-(prop-2-enamido)hexan-2-yl]carbamate] gave an IC50 of 100 to 1000 nM.
C=CC(=O)NCCCC[C@H](NC(=O)OCc1ccccc1)C(=O)N1CCN(c2ccccn2)CC1 [benzyl N-[(2S)-1-oxo-6-(prop-2-enamido)-1-[4-(pyridin-2-yl)piperazin-1-yl]hexan-2-yl]carbamate] showed an IC50 of 100 to 1000 nM.
C=CC(=O)NCCCC[C@H](NC(=O)OCc1ccccc1)C(=O)N1CCOCC1 [benzyl N-[(2S)-1-(morpholin-4-yl)-1-oxo-6-(prop-2-enamido)hexan-2-yl]carbamate] showed an IC50 of 100 to 1000 nM.
Work on C=CC(=O)NCCCC[C@H](NC(=O)OCc1cccc2ccccc12)C(=O)O [(2S)-2-{[(naphthalen-1-ylmethoxy)carbonyl]amino}-6-(prop-2-enamido)hexanoic acid] yielded an IC50 of 1000 to 100000 nM.
For C=CC(=O)NCCCC[C@@H](CO)NC(=O)OCc1ccccc1 [benzyl N-[(2S)-1-hydroxy-6-(prop-2-enamido)hexan-2-yl]carbamate], the IC50 was 1000 to 100000 nM.
With C=CC(=O)NCCCC[C@H](NC(=O)OCc1ccccc1)C(=O)N1CCCCCC1 [benzyl N-[(2S)-1-(azepan-1-yl)-1-oxo-6-(prop-2-enamido)hexan-2-yl]carbamate] the IC50 was 100 to 1000 nM.
Compound C=CC(=O)NCCCC[C@H](NC(=O)OCc1ccccc1)C(=O)N1CCN(c2ncccc2C(F)(F)F)CC1 [benzyl N-[(2S)-1-oxo-6-(prop-2-enamido)-1-{4-[3-(trifluoromethyl)pyridin-2-yl]piperazin-1-yl}hexan-2-yl]carbamate] has an IC50 of 100 to 1000 nM.
With C=CC(=O)NCCCC[C@H](NC(=O)OCc1ccccc1)C(=O)N1CCN(C(=O)C2CC2)CC1 [benzyl N-[(2S)-1-(4-cyclopropanecarbonylpiperazin-1-yl)-1-oxo-6-(prop-2-enamido)hexan-2-yl]carbamate] the IC50 was 100 to 1000 nM.
C=CC(=O)NCCCC[C@H](NC(=O)OCc1ccccc1)C(=O)N1CCN(C(=O)N2CCOCC2)CC1 [benzyl N-[(2S)-1-[4-(morpholine-4-carbonyl)piperazin-1-yl]-1-oxo-6-(prop-2-enamido)hexan-2-yl]carbamate] showed an IC50 of 100 to 1000 nM.
C=CC(=O)NCCCC[C@H](NC(=O)OCC1c2ccccc2-c2ccccc21)C(=O)O [(2S)-2-{[(9H-fluoren-9-ylmethoxy)carbonyl]amino}-6-(prop-2-enamido)hexanoic acid] was tested, and the IC50 was 1000 to 100000 nM.
In the case of C=CC(=O)NCCCC[C@H](NC(=O)OCc1ccc(F)cc1Cl)C(=O)O [(2S)-2-({[(2-chloro-4-fluorophenyl)methoxy]carbonyl}amino)-6-(prop-2-enamido)hexanoic acid], the IC50 is reported as 1000 to 100000 nM.
Compound C=CC(=O)NCCCC[C@H](NC(=O)OCc1ccc(C(C)(C)C)cc1)C(=O)O [(2S)-2-({[(4-tert-butylphenyl)methoxy]carbonyl}amino)-6-(prop-2-enamido)hexanoic acid] has an IC50 of 1000 to 100000 nM.
C=CC(=O)NCCCC[C@H](NC(=O)c1ccccc1)C(=O)N1CCN(c2cccc(C)n2)CC1 [N-[(5S)-6-[4-(6-methylpyridin-2-yl)piperazin-1-yl]-6-oxo-5-(phenylformamido)hexyl]prop-2-enamide] gave an IC50 of 100 to 1000 nM.
In the case of C=CC(=O)NCCCC[C@H](NC(=O)OCc1ccccc1)C(=O)N1CCN(C(=O)C2CCOCC2)CC1 [benzyl N-[(2S)-1-[4-(oxane-4-carbonyl)piperazin-1-yl]-1-oxo-6-(prop-2-enamido)hexan-2-yl]carbamate], the IC50 is reported as 100 to 1000 nM.
